Results: patent publication US4643987A, “Modified glycopeptides” (Eli Lilly and Company, priority 1985, dated 1987)
Values after ≈ are worked out from the molar mass of the structure shown.

Columns and labels:
[1] = system: Streptococcus faecium ATCC 9790; test: agar-dilution MIC; type: cell-based
[2] = system: Staphylococcus epidermidis 222; test: agar-dilution MIC; type: cell-based
[3] = system: Staphylococcus aureus X400; test: agar-dilution MIC; type: cell-based
[4] = system: Streptococcus pyrogenes C203; test: agar-dilution MIC; type: cell-based
[5] = system: Staphylococcus aureus NRRL B313; test: agar-dilution MIC; type: cell-based
[6] = system: Haemophilus influenzae C.L.; test: agar-dilution MIC; type: cell-based
[7] = system: Staphylococcus aureus V41; test: agar-dilution MIC; type: cell-based
[8] = system: Haemophilus influenzae 76; test: agar-dilution MIC; type: cell-based
[9] = system: Staphylococcus epidermidis EP11; test: agar-dilution MIC; type: cell-based
[10] = system: Streptococcus sp. group D 2041; test: agar-dilution MIC; type: cell-based
[11] = system: Streptococcus pneumoniae Park 1; type: cell-based; details: agar dilution
[12] = system: Staphylococcus aureus S13E; type: cell-based; details: agar dilution
[13] = system: Streptococcus pneumoniae; test: experimental bacterial infection in mice, ED50; type: in vivo; details: two doses, subcutaneously
Procedure: (§1) Some of the compounds of this invention have also shown in vivo antimicrobial activity against experimental bacterial infections. When two doses of test compound were administered to mice in experimental infections, the activity observed was measured as an ED50 value [effective dose in mg/kg to protect 50% of the test animals: see Warren Wick, et al., J. Bacteriol. 81, 233-235 (1961)].

[14] = system: Streptococcus pyogenes; test: experimental bacterial infection in mice, ED50; type: in vivo; details: two doses, subcutaneously
Procedure: as §1

[15] = system: Staphylococcus aureus; test: experimental bacterial infection in mice, ED50; type: in vivo; details: two doses, subcutaneously
Procedure: as §1

Row | Compound | MIC [1] [µg/mL] | MIC [2] [µg/mL] | MIC [3] [µg/mL] | MIC [4] [µg/mL] | MIC [5] [µg/mL] | MIC [6] | MIC [7] [µg/mL] | MIC [8] | MIC [9] [µg/mL] | MIC [10] [µg/mL] | MIC [11] [µg/mL] | MIC [12] [µg/mL] | ED50 [13] | ED50 [14] | ED50 [15]
1 | CCCCCCCCOc1ccc(C(=O)N[C@@]2(C)C[C@H](O[C@H]3[C@H](Oc4c5cc6cc4Oc4ccc(cc4Cl)[C@@H](O)[C@@H](NC(=O)[C@@H](CC(C)C)NC)C(=O)N[C@@H](CC(N)=O)C(=O)N[C@H]6C(=O)N[C@H]4C(=O)N[C@H](C(=O)N[C@H](C(=O)O)c6cc(O)cc(O)c6-c6cc4ccc6O)[C@H](O)c4ccc(c(Cl)c4)O5)O[C@H](CO)[C@@H](O)[C@@H]3O)O[C@@H](C)[C@H]2O)cc1 [Compound 1, N^van --[4-(n-octyloxy)benzoyl]vancomycin] | 0.5 (≈ 0.297 µM) | 4 (≈ 2.38 µM) | 2 (≈ 1.19 µM) | 2 (≈ 1.19 µM) | 1 (≈ 0.595 µM) | -- (-- = not active at 128 mcg/ml) | 1 (≈ 0.595 µM) | -- (-- = not active at 128 mcg/ml) | 16 (≈ 9.51 µM) | 1 (≈ 0.595 µM) | 2 (≈ 1.19 µM) | 1 (≈ 0.595 µM) | – | – | –
2 | CCCCCCCCc1ccc(C(=O)N[C@@]2(C)C[C@H](O[C@H]3[C@H](Oc4c5cc6cc4Oc4ccc(cc4Cl)[C@@H](O)[C@@H](NC(=O)[C@@H](CC(C)C)NC)C(=O)N[C@@H](CC(N)=O)C(=O)N[C@H]6C(=O)N[C@H]4C(=O)N[C@H](C(=O)N[C@H](C(=O)O)c6cc(O)cc(O)c6-c6cc4ccc6O)[C@H](O)c4ccc(c(Cl)c4)O5)O[C@H](CO)[C@@H](O)[C@@H]3O)O[C@@H](C)[C@H]2O)cc1 [Compound 2, N^van --[4-(n-octyl)benzoyl]vancomycin] | 0.125 (≈ 0.075 µM) | 1 (≈ 0.6 µM) | 0.5 (≈ 0.3 µM) | 0.25 (≈ 0.15 µM) | 0.5 (≈ 0.3 µM) | -- (-- = not active at 128 mcg/ml) | 0.5 (≈ 0.3 µM) | -- (-- = not active at 128 mcg/ml) | 8 (≈ 4.8 µM) | 0.125 (≈ 0.075 µM) | 0.5 (≈ 0.3 µM) | 0.5 (≈ 0.3 µM) | 0.72 mg/kg/2 | 1.0 mg/kg/2 | 3.78 mg/kg/2
3 | CCCCCCCCc1ccc(C(=O)N(C)C(CC(C)C)C(=O)NC2C(=O)NC(CC(N)=O)C(=O)NC3C(=O)NC4C(=O)NC(C(=O)NC(C(=O)O)c5cc(O)cc(O)c5-c5cc4ccc5O)C(O)c4ccc(c(Cl)c4)Oc4cc3cc(c4OC3OC(CO)C(O)C(O)C3OC3CC(C)(N)C(O)C(C)O3)Oc3ccc(cc3Cl)C2O)cc1 (stereo not drawn) [Compound 3, N^leu --[4-(n-octyl)benzoyl]vancomycin] | 1 (≈ 0.6 µM) | 2 (≈ 1.2 µM) | 2 (≈ 1.2 µM) | 1 (≈ 0.6 µM) | 2 (≈ 1.2 µM) | 128 µg/mL (≈ 76.8 µM) | 2 (≈ 1.2 µM) | 64 µg/mL (≈ 38.4 µM) | 16 (≈ 9.61 µM) | 1 (≈ 0.6 µM) | 1 (≈ 0.6 µM) | 2 (≈ 1.2 µM) | – | – | –
4 | CN[C@H](CC(C)C)C(=O)N[C@H]1C(=O)N[C@@H](CC(N)=O)C(=O)N[C@H]2C(=O)N[C@H]3C(=O)N[C@H](C(=O)N[C@H](C(=O)O)c4cc(O)cc(O)c4-c4cc3ccc4O)[C@H](O)c3ccc(c(Cl)c3)Oc3cc2cc(c3O[C@@H]2O[C@H](CO)[C@@H](O)[C@H](O)[C@H]2O[C@H]2C[C@](C)(NC(=O)c3ccc(OC)cc3)[C@H](O)[C@H](C)O2)Oc2ccc(cc2Cl)[C@H]1O [Compound 4, N^van --(4-methoxybenzoyl)vancomycin] | 2 (≈ 1.26 µM) | 2 (≈ 1.26 µM) | 2 (≈ 1.26 µM) | 1 (≈ 0.632 µM) | 2 (≈ 1.26 µM) | 128 µg/mL (≈ 80.8 µM) | 2 (≈ 1.26 µM) | 128 µg/mL (≈ 80.8 µM) | 8 (≈ 5.05 µM) | 8 (≈ 5.05 µM) | 0.5 (≈ 0.316 µM) | 2 (≈ 1.26 µM) | – | – | –
5 | CN[C@H](CC(C)C)C(=O)N[C@H]1C(=O)N[C@@H](CC(N)=O)C(=O)N[C@H]2C(=O)N[C@H]3C(=O)N[C@H](C(=O)N[C@H](C(=O)O)c4cc(O)cc(O)c4-c4cc3ccc4O)[C@H](O)c3ccc(c(Cl)c3)Oc3cc2cc(c3O[C@@H]2O[C@H](CO)[C@@H](O)[C@H](O)[C@H]2O[C@H]2C[C@](C)(NC(=O)CC(C)Oc3ccccc3)[C@H](O)[C@H](C)O2)Oc2ccc(cc2Cl)[C@H]1O (stereo partly drawn) [Compound 6, N^van --(1-oxo-3-phenoxy-n-butyl)vancomycin] | 2 (≈ 1.24 µM) | 2 (≈ 1.24 µM) | 2 (≈ 1.24 µM) | 1 (≈ 0.621 µM) | 1 (≈ 0.621 µM) | -- (-- = not active at 128 mcg/ml) | 2 (≈ 1.24 µM) | -- (-- = not active at 128 mcg/ml) | 8 (≈ 4.96 µM) | 4 (≈ 2.48 µM) | 1 (≈ 0.621 µM) | 2 (≈ 1.24 µM) | 1.8 mg/kg/2 | 3.2 mg/kg/2 | 3.7 mg/kg/2
6 | CN[C@H](CC(C)C)C(=O)N[C@H]1C(=O)N[C@@H](CC(N)=O)C(=O)N[C@H]2C(=O)N[C@H]3C(=O)N[C@H](C(=O)N[C@H](C(=O)O)c4cc(O)cc(O)c4-c4cc3ccc4O)[C@H](O)c3ccc(c(Cl)c3)Oc3cc2cc(c3O[C@@H]2O[C@H](CO)[C@@H](O)[C@H](O)[C@H]2O[C@H]2C[C@](C)(NC(=O)CC(C)c3cccs3)[C@H](O)[C@H](C)O2)Oc2ccc(cc2Cl)[C@H]1O (stereo partly drawn) [Compound 7, N^van --[1-oxo-3-(2-thienyl)-n-butyl]vancomycin] | 2 (≈ 1.25 µM) | 2 (≈ 1.25 µM) | 1 (≈ 0.624 µM) | 1 (≈ 0.624 µM) | 1 (≈ 0.624 µM) | -- (-- = not active at 128 mcg/ml) | 1 (≈ 0.624 µM) | 128 µg/mL (≈ 79.9 µM) | 8 (≈ 5 µM) | 4 (≈ 2.5 µM) | 0.5 (≈ 0.312 µM) | 2 (≈ 1.25 µM) | 2.3 mg/kg/2 | 3.38 mg/kg/2 | 3.05 mg/kg/2
7 | CC(C)C[C@H](C(=O)N[C@H]1C(=O)N[C@@H](CC(N)=O)C(=O)N[C@H]2C(=O)N[C@H]3C(=O)N[C@H](C(=O)N[C@H](C(=O)O)c4cc(O)cc(O)c4-c4cc3ccc4O)[C@H](O)c3ccc(c(Cl)c3)Oc3cc2cc(c3O[C@@H]2O[C@H](CO)[C@@H](O)[C@H](O)[C@H]2O[C@H]2C[C@](C)(NC(=O)CSc3ccccc3)[C@H](O)[C@H](C)O2)Oc2ccc(cc2Cl)[C@H]1O)N(C)C(=O)CSc1ccccc1 [Compound 12, N^van,N^leu-di-[1-oxo-2-(phenylthio)ethyl]vancomycin] | 32 (≈ 18.3 µM) | 64 (≈ 36.6 µM) | 32 (≈ 18.3 µM) | 8 (≈ 4.57 µM) | 16 (≈ 9.14 µM) | -- (-- = not active at 128 mcg/ml) | 16 (≈ 9.14 µM) | -- (-- = not active at 128 mcg/ml) | 128 (≈ 73.2 µM) | 64 (≈ 36.6 µM) | 8 (≈ 4.57 µM) | 32 (≈ 18.3 µM) | – | – | –
8 | CN[C@H](CC(C)C)C(=O)N[C@H]1C(=O)N[C@@H](CC(N)=O)C(=O)N[C@H]2C(=O)N[C@H]3C(=O)N[C@H](C(=O)N[C@H](C(=O)O)c4cc(O)cc(O)c4-c4cc3ccc4O)[C@H](O)c3ccc(c(Cl)c3)Oc3cc2cc(c3O[C@@H]2O[C@H](CO)[C@@H](O)[C@H](O)[C@H]2O[C@H]2C[C@](C)(N)[C@H](O)[C@H](C)O2)Oc2ccc(cc2Cl)[C@H]1O [vancomycin, Vancomycin, reference compound] | – | – | – | – | – | – | – | – | – | – | – | – | 0.90-0.93 mg/kg/2 | 0.99-1.1 mg/kg/2 | 1.8-3.7 mg/kg/2
9 | N^leu --(4-methoxybenzoyl)vancomycin [Compound 5] | 4 | 4 | 4 | 2 | 2 | -- (-- = not active at 128 mcg/ml) | 2 | -- (-- = not active at 128 mcg/ml) | 16 | 8 | 2 | 4 | – | – | –
10 | N^leu -[1-oxo-2-(phenylthio)ethyl]vancomycin [Compound 11] | 8 | 8 | 8 | 4 | 4 | -- (-- = not active at 128 mcg/ml) | 4 | -- (-- = not active at 128 mcg/ml) | 16 | 16 | 2 | 4 | – | – | –
11 | N^van -[1-oxo-2-(phenylthio)ethyl]vancomycin [Compound 10] | 1 | 2 | 1 | 0.5 | 1 | 128 µg/mL | 1 | 32 µg/mL | 4 | 4 | 0.5 | 1 | 1.9 mg/kg/2 | 4.45 mg/kg/2 | 2.3 mg/kg/2
